Measurements as given in a compilation of properties of binary mixtures (doi:10.1016/j.molliq.2022.119758).

Assay: xn = mol fraction of the nth substance listed
Settings: 101 kPa

O=C1CCCO1 + CCC[N+]1(C)CCCC1.O=S(=O)([N-]S(=O)(=O)C(F)(F)F)C(F)(F)F
x2 = 0
Settings | viscosity [mPa·s]
278.15 K | 2.56
298.15 K | 1.859
308.15 K | 1.641
328.15 K | 1.242
338.15 K | 1.106
358.15 K | 0.894

CCC[N+]1(C)CCCC1.O=S(=O)([N-]S(=O)(=O)C(F)(F)F)C(F)(F)F + O=C1CCCO1
viscosity [mPa·s]
Settings | 278.15 K | 288.15 K | 298.15 K | 308.15 K | 318.15 K | 328.15 K | 338.15 K | 348.15 K | 358.15 K
x1 = 0.0657 | – | 3.14 | 2.65 | 2.296 | 1.951 | 1.694 | – | 1.328 | 1.191
x1 = 0.1741 | 6.97 | – | 4.45 | 3.67 | 3.08 | – | – | – | –
x1 = 0.3874 | 16.24 | 11.87 | 9.04 | 7.09 | 5.71 | 4.7 | 3.95 | 3.37 | 2.92
x1 = 1 | – | 96.2 | 60.6 | 40.8 | 28.9 | 21.3 | 16.29 | 12.82 | –
